Entries after “also recorded” stand apart in the source; their conditions may differ.
Experiments:
SH-SY5Y cells [1] = test: H2O2-EC50 of hydralazine and its analogs (protection from H2O2 stress); format: cell-based; details: Homo sapiens
Experimental: To generate intracellular aldehydes, the inventors treated human neuroblastoma cell line (SH-SY5Y) with 100 μM hydrogen peroxide (H2O2) for 24 h. Carbonyl groups were quantified using 2,4-DNPH (dinitrophenylhydrazine) assay.
Cell Viability and Cytotoxicity Assay. Cell growth was analyzed using the MTT cell viability assay. Briefly, at the end of incubation/treatment, MTT reagent was diluted in culture medium and aliquoted into each well. After incubation for 2 hours, the medium was aspirated and DMSO was aliquoted into each well to disrupt the cells and dissolve the intracellular MTT dyes. Absorbance was read at 570 nm wavelength in a 96-well plate reader. Cell toxicity was detected using a LDH cell toxicity assay kit (Promega, Fitchburg Wis.). This is a coupled enzymatic assay that detects a visible color signal initially described by Nachlas et. al. The reagent contained excess concentrations of lactate and NAD+as substrates to drive the LDH reaction and produce NADH. In the presence of diaphorase, NADH drives the enzyme-catalyzed conversion of iodonitro-tetrazolium violet to a red formazan product. Briefly, DMEM medium was withdrawn from each well of the plate after treatment and briefly centrifuged to get rid of floating cells or cell debris. Then, the medium supernatant was mixed with equal volume of substrate/enzyme mixture included in the kit (lactate, NAD+, diaphorase and iodonitro-tetrazolium violet), followed by incubation at room temperature for 15 minutes before the addition of acetic acid to cease the reaction. The absorbance was read at 490 nm in a 96-well plate reader. […] Cell viability assay was performed using CellTiter-Glo assay.

Nrf2 = details: SH-SY5Y, 5 μM sulforaphane
Experimental: The inventors quantified Nrf2 protein in treated cells as a first step towards validating the prediction of the Nrf2 pathway.
Nrf2 phosphorylation on serine 40 is a regulatory modification required for Nrf2 translocation to nucleus and downstream protein activation.
Western Blot Analysis. Protein expression was determined by Western blot analysis. Equal amount of protein from each sample was run in Tris-glycine SDS PAGE gel, followed by transferring to PVDF membrane. After blocking the membrane with 5% milk for 1 hour at room temperature, the membrane was incubated further for 2 hours with antibodies specific for target proteins: Nrf2, pNrf2(S40) from Novus (Littleton, Colo.); Keap1, HO-1, NQO1, GCLc, GCLm and lamin B1 from Cell Signaling (Danvers, Mass.); GAPDH from Santa Cruz (Dallas, Tex.); β-Actin from Thermo Fisher (Waltham, Mass.). The membrane was subsequently incubated with species-specific HRP-conjugated secondary antibody followed by incubation with chemiluminescence substrate and imaging. The band intensity of each of the target proteins was quantified using ImageQuant software (GE Healthcare, Sweden). Western blot analysis on worm lystaes was done similarly. […] Equal amounts of protein were run on the gel and SKN-1 protein level was detected using anti-GFP antibody.
Cell Fractionation. Nuclear and cytoplasmic fractions were separated using the protocol and NE-PER Nuclear and Cytoplasmic Extraction Reagents provided by […]. Briefly, the cells were harvested and washed with ice-cold PBS buffer. The cells were resuspended in ice-cold CER-I buffer and incubated on ice for 10 minutes, followed by addition of CER-II buffer and incubation for one more minute on ice. The lysate was centrifuged at 16,000 g for 5 minutes. The supernatant was the cytoplasmic fraction. The pellet obtained was lysed in ice-cold NER buffer to obtain nuclear protein fractions.

C. elegans = test: Rotenone stress test in worms; format: in vivo; details: in vivo
Source text: The inventors again used rotenone to elicit PD-like changes.
Rotenone stress test. […] After 3 days young adult worms were transferred to fresh NGM plates either preloaded with rotenone alone or rotenone plus any of the abovementioned compounds. Every worm was subjected to prodding test with a worm pick every day. A worm was scored as dead when not responding to three repeated proddings. Survival curve was plotted using Prism 7.

SH-SY5Y cells [2] = test: Mitochondrial membrane potential (TMRE); format: cell-based, human; details: hydralazine 0, 10, 20 μM; isoniazid 20 μM
Experimental: Cells were stained by TMRE to tag active mitochondria. Florescence signal was quantified by Flow Jo software. […] ATP levels were measured by bioluminescent detection of luciferase activity. All data are presented normalized to cell number.
The mitochondrial membrane potential was measured as an indicator of cellular energetics and ATP content.

| SMILES | EC50 (SH-SY5Y cells [1]) [µM] | further results |
| --- | --- | --- |
| Oc1nnc(Cl)c2ccccc12 [4-Chlorophthalazin-1-ol] | ≥ 20 |  |
| O=c1[nH]ncc2ccccc12 [Phthalazin-1(2H)-one] | ≥ 50 |  |
| C[S+]([O-])CCCCN=C=S (centres unmarked) [sulforaphane] |  | phosphorylation and nuclear localization of Nrf2 (positive control) (Nrf2): caused similar changes |
| [Cl-].[Na+] [NaCl] |  | protection against rotenone-induced death (C. elegans): No protection; also recorded: did not protect worms |
| NNc1nnc(O)c2ccccc12 [4-Hydrazinylphthalazin-1-ol, 4-Hydrazinylphthalazin-1-ol] | ≥ 10 |  |
| NNc1nnc(Cl)c2ccccc12 [1-Chloro-4-hydrazinyl-phthalazine, 1-Chloro-4-hydrazinylphthalazine] | ≥ 20 |  |
| Cc1nc2c3ccccc3c(NN)nn2n1 [6-Hydrazinyl-2-methyl-[1,2,4]triazolo[5,1-a]phthalazine] | ≥ 50 |  |
| C#CCOc1nnc(NN)c2ccccc12 [1-Hydrazinyl-4-(prop-2-yn-1-yloxy)phthalazine] | 4.32 |  |
| CN(C)Nc1nncc2ccccc12 | ≥ 50 |  |
| NNC(=O)c1ccncc1 [Isonicotinohydrazide] | ≥ 50 | mitochondrial membrane potential / mitochondrial function (TMRE) (SH-SY5Y cells [2]): did not have a positive effects on mitochondrial function |
